According to article PMC7558399, “In Vitro Selective Growth-Inhibitory Activities of Phytochemicals, Synthetic Phytochemical Analogs, and Antibiotics against Diarrheagenic/Probiotic Bacteria and Cancer/Normal Intestinal Cells” (Pharmaceuticals, 2020):
Where a name gives a salt, the structure may show the parent alone. Read-outs that look alike come from different tables or passages of the source.

How the values were obtained:
Assay type in all cases: cell-based
[1] = tested on: Bifidobacterium breve (ATCC 15700); assay: Broth microdilution MIC, B. breve
[2] = tested on: Clostridium perfringens (DSMZ 11778); assay: microbe, parasite or virus in culture; conditions: DSMZ11778
[3] = tested on: Yersinia enterocolitica (ATCC 9610); assay: Broth microdilution MIC, Y. enterocolitica; conditions: ATCC9610, […], read-out: MIC
[4] = tested on: FHs 74 Int (ATCC CCL 241) intestinal normal cells; assay: MTT cytotoxicity assay, FHs 74 Int; conditions: 72 h; for IC50 / IC80: FHs74Int
[5] = tested on: Escherichia coli (ATCC 25922); assay: Broth microdilution MIC, E. coli; conditions: ATCC25922, […], read-out: MIC
[6] = tested on: Lactobacillus casei (DSMZ 20011); assay: Broth microdilution MIC, L. casei; conditions: Lacticaseibacillus casei, DSMZ20011; Lactobacillus casei; […]; read-out: MIC
[7] = tested on: Bifidobacterium adolescentis (DSMZ 20087); assay: Broth microdilution MIC, B. adolescentis
[8] = tested on: Shigella flexneri (ATCC 12022); assay: microbe, parasite or virus in culture
[9] = tested on: Lactobacillus reuteri (CCM 3625); assay: Broth microdilution MIC, L. reuteri; conditions: Limosilactobacillus reuteri, CCM3625
[10] = tested on: Lactobacillus rhamnosus (CCM 7091); assay: Broth microdilution MIC, L. rhamnosus; conditions: Lacticaseibacillus rhamnosus, CCM7091; Lactobacillus rhamnosus; […]; read-out: MIC
[11] = tested on: diarrheagenic bacteria (12 strains); assay: microbe, parasite or virus in culture
[12] = tested on: Bifidobacterium bifidum (ATCC 29521); assay: Broth microdilution MIC, B. bifidum
[13] = tested on: Salmonella enterica ssp. enterica serovar Enteritidis (ATCC 13076); assay: Broth microdilution MIC, Salmonella Enteritidis; conditions: Salmonella Enteritidis, […], read-out: MIC
[14] = tested on: E. coli 0175:H7 (NCTC 12900); assay: microbe, parasite or virus in culture; conditions: Escherichia coli, NCTC12900
[15] = tested on: Enterococcus faecalis (ATCC 29212); assay: Broth microdilution MIC, E. faecalis; conditions: ATCC29212, […], read-out: MIC
[16] = tested on: HT29 (ATCC HTB 38) intestinal cancer cells; assay: MTT cytotoxicity assay, HT29; conditions: Homo sapiens; for IC50: read-out: IC50 ± SD; for IC80: read-out: IC80 ± SD (80% inhibitory concentration of proliferation)
[17] = tested on: Caco-2 (ATCC HTB 37) intestinal cancer cells; assay: MTT cytotoxicity assay, Caco-2; conditions: Homo sapiens, Caco-2, 72 h; for IC50: read-out: IC50 ± SD; for IC80: read-out: IC80 ± SD (80% inhibitory concentration of proliferation)
[18] = tested on: Vibrio parahaemolyticus (ATCC 17802); assay: Broth microdilution MIC, V. parahaemolyticus; conditions: ATCC17802, […], read-out: MIC
[19] = tested on: Listeria monocytogenes (ATCC 7644); assay: Broth microdilution MIC, L. monocytogenes
[20] = tested on: S. enterica ssp. enterica serovar Typhimurium (ATCC 14028); assay: Broth microdilution MIC, Salmonella Typhimurium; conditions: Salmonella Typhimurium, […], read-out: MIC
[21] = tested on: Bifidobacterium longum ssp. longum (DSMZ 20219); assay: Broth microdilution MIC, B. longum ssp. longum; conditions: DSMZ20219
[22] = tested on: Bifidobacterium animalis spp. lactis (DSMZ 10140); assay: Broth microdilution MIC, B. animalis spp. lactis; conditions: DSMZ10140
[23] = tested on: Bacteroides fragilis (ATCC 25285); assay: Broth microdilution MIC, B. fragilis
[24] = tested on: Clostridium difficile (DSMZ 12056); assay: microbe, parasite or virus in culture; conditions: Clostridioides difficile, DSMZ12056; Clostridium difficile; […]; read-out: MIC
[25] = tested on: Bacillus cereus (ATCC 14579); assay: Broth microdilution MIC, B. cereus; conditions: ATCC14579, […], median/mode, read-out: MIC
[26] = tested on: probiotic bacteria (9 strains); assay: Broth microdilution MIC, probiotic bacteria as a group (mean or range over strains)
[27] = tested on: intestinal cancer cells (HT29 and Caco-2); assay: MTT cytotoxicity assay, mean for intestinal cancer cells; conditions: for IC50: read-out: x¯ -CC ± SD: mean IC50 for intestinal cancer cells; for IC80: read-out: x¯ -CC ± SD: mean IC80 for intestinal cancer cells
[28] = mean of 12 strains, >512 replaced with 1024, read-out: x¯ -DB ± SD: mean MIC for diarrheagenic bacteria
[29] = FHs 74 Int (intestinal normal cells), MTT

| Structure (SMILES) | MIC [2] [µg/mL] | MIC [3] [µg/mL] | MIC [5] [µg/mL] | MIC [6] [µg/mL] | MIC [10] [µg/mL] | MIC [11, 28] [µg/mL] | MIC [13] [µg/mL] | MIC [14] [µg/mL] | MIC [15] [µg/mL] | IC50 [17] [µg/mL] | IC80 [17] [µg/mL] | MIC [18] [µg/mL] | MIC [20] [µg/mL] | MIC [24] [µg/mL] | MIC [25] [µg/mL] | IC50 [27] [µg/mL] | IC80 [27] [µg/mL] | also measured |
| --- | --- | --- | --- | --- | --- | --- | --- | --- | --- | --- | --- | --- | --- | --- | --- | --- | --- | --- |
| C[n+]1cc2c3c(ccc2c2ccc4cc5c(cc4c21)OCO5)OCO3 [SG, sanguinarine chloride] | 128 | 256 | 256 | 32 | 64 | 156 ± 137 | 256 | 128 | 32 | 0.8 ± 0.1 | 1.5 ± 0.1 | 32 | 512 | 64 | 128 | 0.8 ± 0.05 | 1.6 ± 0.2 | MIC ([1]; ATCC15700): 32 µg/mL; IC50 ([4]; read-out: IC50 ± SD): 1 ± 0.1 µg/mL; IC80 ([4]; read-out: IC80 ± SD (80% inhibitory concentration of proliferation)): 1.9 ± 0.2 µg/mL; MIC ([7]; DSMZ20087): 16 µg/mL; MIC ([8]; ATCC12022): 64 µg/mL; MIC [9]: 32 µg/mL; MIC ([12]; ATCC29521): 32 µg/mL; IC50 ([16]; HT-29, HT29, MTT, 72 h): 0.9 ± 0.2 µg/mL; IC80 ([16]; HT-29, HT29, MTT, 72 h): 1.8 ± 0.4 µg/mL; MIC ([19]; ATCC7644): 16 µg/mL; MIC ([21]; Bifidobacterium longum): 64 µg/mL; MIC ([22]; Bifidobacterium animalis): 32 µg/mL; MIC ([23]; ATCC25285): 32 µg/mL; MIC ([26]; read-out: x¯ -PB ± SD: mean MIC for probiotic bacteria): 37.3 ± 15 µg/mL |
| CN[C@H](CC(C)C)C(=O)N[C@H]1C(=O)N[C@@H](CC(N)=O)C(=O)N[C@H]2C(=O)N[C@H]3C(=O)N[C@H](C(=O)N[C@H](C(=O)O)c4cc(O)cc(O)c4-c4cc3ccc4O)[C@H](O)c3ccc(c(Cl)c3)Oc3cc2cc(c3O[C@@H]2O[C@H](CO)[C@@H](O)[C@H](O)[C@H]2O[C@H]2C[C@](C)(N)[C@H](O)[C@H](C)O2)Oc2ccc(cc2Cl)[C@H]1O [VM, vancomycin hydrochloride] | 1 | > 512 | > 512 | 256 | 64 | 513 ± 404 | 512 | 512 | > 512 | > 512 | > 512 | 256 | 512 | 2 | 256 | > 512 | > 512 | MIC ([1]; ATCC15700, […], read-out: MIC): 4 µg/mL; IC50 ± SD [4, 29]: - (Not active (MIC/IC50/80 > 512 μg/mL, the value 1024 μg/mL was used for average calculation)); IC80 ± SD (80% inhibitory concentration of proliferation) [4, 29]: - (Not active (MIC/IC50/80 > 512 μg/mL, the value 1024 μg/mL was used for average calculation)); IC50 ([4]; read-out: IC50 ± SD, FHs 74 Int (intestinal normal cells), MTT): > 512 µg/mL; IC80 ([4]; read-out: IC80 ± SD (80% inhibitory concentration of proliferation), FHs 74 Int (intestinal normal cells), MTT): > 512 µg/mL; MIC ([7]; DSMZ20087, […], read-out: MIC): 2 µg/mL; MIC ([8]; ATCC12022, […], read-out: MIC): > 512 µg/mL; MIC ([9]; Lactobacillus reuteri, […], read-out: MIC): 64 µg/mL; MIC ([11]; both clostridial species tested, read-out: MICs): 0.5 to 8 µg/mL; MIC ([12]; ATCC29521, […], read-out: MIC): 4 µg/mL; IC50 ([16]; HT-29, 72 h): > 512 µg/mL; IC80 ([16]; HT-29, 72 h): > 512 µg/mL; MIC ([19]; ATCC7644, growth inhibited by ≥80%, read-out: MIC): 8 µg/mL; MIC ([21]; Bifidobacterium longum ssp. longum, […], read-out: MIC): 2 µg/mL; MIC ([22]; Bifidobacterium animalis spp. lactis, […], read-out: MIC): 2 µg/mL; MIC ([23]; ATCC25285, […], read-out: MIC): 32 µg/mL; MIC ([26]; bifidobacteria, range over strains, read-out: MICs): 2 to 4 µg/mL; MIC ([26]; lactobacilli, range over strains, read-out: MICs): 64 to 256 µg/mL; MIC ([26]; mean of 9 strains, >512 replaced with 1024, read-out: x¯ -PB ± SD: mean MIC for probiotic bacteria): 47.8 ± 78 µg/mL |
